melting point [°C]	SMILES
180 to 182	COC(=O)c1cc(Oc2ccc([N+](=O)[O-])cc2)cc(Oc2ccc([N+](=O)[O-])cc2)c1
74 to 79.5	O=C(Oc1ccc(Cl)c(OCC2CC2(Cl)Cl)c1)N1CCSC1 (centres undefined)
215	Cc1ccc(S(=O)(=O)OCC2C(=O)Nc3ccccc3SC2c2ccccc2)cc1 (centres undefined)
114 to 116	NC(=O)CCC(C(=O)O)N1C(=O)c2cccc(NCc3ccco3)c2C1=O (centres undefined)
203	N#Cc1ccc(N(Cc2ccc(Br)cc2)n2cnnc2)cc1
134 to 137	O=c1c2c(Cc3ccc(OC(F)(F)F)cc3)n[nH]c2c2cccnc2n1-c1cccc(C(F)(F)F)c1
110 to 112	CON(C)C(=O)Nc1ccc(OCCc2ccc(C)cn2)cc1
340 to 350	CCCN1CCc2c(ccc3[nH]c(=O)c(=O)[nH]c23)C1
156 to 158	O=[N+]([O-])c1ccc(OC2OC(CO)C(O)C2O)cc1 (centres undefined)
120 to 126	Cc1cc(C(=O)O)cc(C)c1OCCNC(=O)C1Cc2ccccc2N1S(=O)(=O)c1ccc(-c2cccc(C(F)(F)F)c2)cc1 (centres undefined)
148 to 150	CCOC(=O)C1=C(C)Nc2ccccc2NC1c1cccc([N+](=O)[O-])c1 (centres undefined)
133 to 134	COc1ccccc1Oc1c(N=[N+]=[N-])nc(-c2ncccn2)nc1C(=O)OCCO
141 to 143	CCc1ccccc1N1CCN(C(=S)Nc2nc3ccccc3nc2OC)CC1
268 to 271	CNc1nc(-c2ccc(SC)cc2)n(-c2ccc(C)cc2)c(=O)c1C#N
222 to 224	O=S1c2ccccc2-c2[nH]nc(-c3ccccc3)c21 (centres undefined)
155 to 156	COCN1C(C)=C(C(=O)O)C(c2cccc(Cl)c2Cl)C(C(=O)O)=C1C
232 to 234	NC(=O)c1sc2nccc(NCCCc3ccccc3)c2c1N
127	Cc1oc(-c2ccccc2)nc1CCOc1cccc(-c2cccc(OC3(C(=O)O)CCC3)c2)c1
162 to 164	Cc1ccc(C#N)c(Nc2ccccc2[N+](=O)[O-])c1
159 to 161	O=C1N(N2CCOCC2)c2ccccc2C1(Cc1ccccc1)c1ccccc1 (centres undefined)
96 to 98	CS(=O)(=O)Oc1ccc([N+](=O)[O-])c(OCCBr)c1
188 to 191	CC1=NN=C(C=Cc2ccc(C(F)(F)F)cc2)c2cc3c(cc2C1)OCO3
70 to 78	CN(C)S(=O)(=O)Cc1ccccc1N
190 to 192	CCOC(=O)CSC(=S)N1Cc2[nH]c3ccccc3c2CC1C(=O)O (centres undefined)

melting point [°C]	SMILES
213 to 215	Cc1cn(C2CC(O)C(CO)S2)c(=O)[nH]c1=O (centres undefined)
205 to 208	Cc1nccn1-c1ccc(O)cc1
40	CCC(=O)OCCN1CCc2cc(Nc3ncc(Cl)c(Nc4ccccc4S(=O)(=O)N(C)C)n3)c(OC)cc2CC1
208 to 211	CCn1c(=O)c2[nH]c(/C=C/c3ccc(OC)c(OC)c3)nc2n(CC)c1=O
134 to 135	CCOC=Nc1ccc2nnc(-c3ncc([N+](=O)[O-])n3C)n2n1
170 to 176	C=C(c1cncn1Cc1ccccc1)C(c1cc(C)cc(C)c1)c1cc(C)cc(C)c1
174 to 176	COc1ccc(C(=O)Nc2ccccc2)cc1NC(=S)Nc1ccccc1
110 to 112	CCOC(=O)c1ccc(Cn2cnc3ccncc32)cc1
123 to 125	COC(=O)c1nc(-c2ccc(Cl)c(OC)c2F)nc(N)c1OCC(F)(F)F
> 300	Cc1nc2ccc3nc(O)c(O)nc3c2nc1C
139	COC(=O)CCN1CCC(=C2c3ccn(C)c3CCn3ncnc32)CC1
243 to 245	Cc1ccccc1Nc1nc(O)c2sccc2n1
96 to 98	CCOCCn1c(C(=O)C2CCN(C(=O)OC(C)(C)C)CC2)nc2ccccc21
130 to 131	CCOC(=O)C1=C(C)N(C(C)=O)C(c2cscn2)=NC1c1cccc(OC)c1 (centres undefined)
59 to 61	Clc1ccc(-n2nc3c(c2Cl)CCCCC3)cc1
160 to 162	CC(C)(C)OC(=O)N1CCC(NC(=O)Nc2ccc(OC(F)(F)F)cc2)CC1
110 to 111	Cc1c(NC(=O)c2ccc(OC[C@H]3CCCO3)cc2)ccc2cc(CNCC(C)(C)C)cnc12
105 to 106	Cc1ccc(S(=O)(=O)OCC(COC(=O)c2ccccc2)OS(=O)(=O)c2ccc(C)cc2)cc1 (single isomer, unassigned; (-))
220 to 221	Cc1cccc(C(=O)Nc2c[nH]nc2C(=O)NCCF)n1
53 to 54	Cc1cc(Br)n2ccnc2c1
140 to 141	CC(=O)N(CCC1CCCCN1CCC(C(N)=O)c1ccccc1Cl)C(C)C (centres undefined)
78	CC1NCc2ccsc2C1c1ccccc1 (centres undefined)
121 to 123	Oc1cc2c(cc1CCCOc1ccc3ccccc3c1-c1nnn[nH]1)OC(CCc1ccccc1)C2 (centres undefined)
191 to 193	O=S(=O)(Cl)c1ccc2oc3cc(Br)ccc3c2c1

melting point [°C]	SMILES
205	CC(=O)Nc1ccc(NC(=O)OCc2ccccc2)c(O)c1
160 to 162	CCCCNc1nc2cc(C)nn2c2c1cnc1c2cnn1CC
110 to 112	Cc1ccc(S(=O)(=O)n2c(C3(O)C=CC(=O)c4ccccc43)cc3ccccc32)cc1 (centres undefined)
186	NC(=O)c1ccc(Br)c(OC(F)F)c1Br
122 to 125	Cc1ccn(-c2ccc(C(=O)c3cccc4c3Nc3ncccc3CN4)c(F)c2)n1
193 to 195	O=[N+]([O-])c1ccc(-c2cc3c(Oc4ccc(Cl)cc4)cncc3s2)cc1
118	CC(=O)NNC(=S)N1N=C(c2ccc([N+](=O)[O-])cc2)c2cc3c(cc2CC1C)OCO3 (centres undefined)
99.8 to 101	CCC(C)Sc1cc(C(F)(F)F)ccc1C(=O)O (centres undefined)
> 300	CCN(CC)C(=O)N1CCc2c([N+](=O)[O-])cc3[nH]c(=O)c(=O)[nH]c3c2C1
276	Cc1c(C(=O)Nc2ccc(N3CCN(C4CCOCC4)CC3)c(C#N)c2)cnn1-c1ccc(Cl)cc1
95 to 96.5	CCOC(=O)c1cc(OC)c(OC)c(OC)c1-c1c(C(=O)OCC)cc(OC)c2c1OCO2
295 to 296	O=C(O)c1ccc2c(c1)S(=O)c1ccccc1C2=O (centres undefined)
197	Cc1ccc2c(c1)OCC(=O)N2
165 to 167	O=C(c1ccc(Cl)nc1)N1Cc2cccn2Cc2ccccc21
209 to 210	CCOC(=O)/C(=N\OC1CCNC1=O)c1csc(NC(c2ccccc2)(c2ccccc2)c2ccccc2)n1 (centres undefined)
95 to 96	CC(C)[Si](Oc1ccc2c(c1)CN(Nc1ccccn1)C2)(C(C)C)C(C)C
221 to 223	CCOC(=O)c1cc(=O)c2ccc(O)cc2o1
73 to 75	C[C@H]1[C@H](c2ccccc2)OC(c2cccc(Br)c2)N1C (some centres undefined)
87 to 88	CN(C=O)CNC(=O)c1snc(Cl)c1Cl
166 to 168	COc1cc2c(c3c1OC(C)(C)C3)C(c1ccn(CC(=O)NCC(N)=O)c(=O)c1)=NC(C)(C)C2
236 to 242	Cc1cc2c(=O)c(C(=O)O)cn(-c3cc(N)c(F)cc3F)c2c([N+](=O)[O-])c1F
125 to 126	CCc1cccc(CC(=O)O)c1OCCn1cc(C(=O)NCc2ccc(Cl)cc2Cl)c(OC(C)C)n1
260 to 262	CCN(CC)c1ncnc2nc(-c3ccncc3)[nH]c12
200 to 202	CC(C)n1nc(-c2cnc(N3CCOCC3)nc2-c2ccccc2)ccc1=O

melting point [°C]	SMILES
138 to 140	S=C1CSc2cccc(Cl)c2N1
213 to 215	O=C(O)CCN1CCN(c2ccccc2)CC1
229 to 230	CCNC(=O)Nc1cc(-c2c(-c3ccc(F)c(C)c3)nc3c(C)cc(Cl)nn23)ccn1
179 to 180	O=C(O)C1=Cc2cc(C3CCCCC3)ccc2CC1
143 to 145	CCCCc1c2c(nn1CCCC)c(N)nc1ccccc12
194 to 196	CC(C)(C)C(NC(=O)Cc1ccc(C#N)cc1)NC(=NC#N)Nc1cccc2ncccc12 (centres undefined)
171 to 173	NCCN1C(=O)CN(c2ccc3c(c2)OCO3)C1=O
186	COc1cccc(OC)c1-c1ccc(C[C@H](NC(=O)c2c(Cl)cc(-c3cscn3)cc2Cl)C(=O)O)cc1
117 to 119	NS(=O)(=O)OCCOc1ccc(Cl)cc1
149	Nc1ccccc1CCN1CCN(c2nsc3ccccc23)CC1
97 to 98	O=C(O)C(=O)c1ccc(OCCOc2ccc(F)cc2)cc1
180 to 182	CON=Cc1ccc2c(c1)c1c(n2Cc2cccc(F)c2)CCC(NC(=O)C(C)C)C1 (centres undefined)
211 to 213	CCOCc1nc2c(N)nc3ccccc3c2n1CCN1C(C)=NOC12CCCC2
133 to 136	CC(c1ccc(-c2ccccc2)o1)N(O)C(N)=O (centres undefined)
76 to 77	CCCCCCCCCCCCCCC(O)CO (centres undefined)
136 to 139	CC(C)c1nc(CO)n(Cc2cccnc2)c1Sc1cc(Cl)cc(Cl)c1
102 to 103	CS(=O)(=O)C1CC(=O)N1CC(=O)OCc1ccccc1 (single isomer, unassigned; (+))
60 to 61	Nc1cc(CN2CCC2)cc(C(F)(F)F)c1
300	Cc1c2c(cc(=O)n1CC(C)O)CCC(c1ccccn1)C2 (centres undefined)
233 to 235	COc1ccc(Cn2cnc(=O)c3[nH]c(C(C)C)nc32)cc1OCc1ccccc1
288 to 290	O=C1CSc2nc(Nc3ccc(N4CCOCC4)cc3)ncc2N1
94 to 95	Cc1cccc2c(-c3ccc(Cl)cc3Cl)onc12
168 to 169	COc1cc(NS(=O)(=O)c2ccc(Cl)cc2)c(C(=O)O)cc1OC
134 to 136	O=S(=O)(NCC1CCCO1)c1ccc(Nc2nc(OCC3CCCCC3)c3nc[nH]c3n2)cc1 (centres undefined)

SMILES	melting point [°C]
CC(C)(C)c1nc(-c2nn(-c3ccc(F)cc3F)c3c2C2CCC3C2)no1 (centres undefined)	119 to 121
CN1CCC23c4c5cccc4OC2C(=O)CCC3(O)C1C5 (centres undefined)	223 to 225
CCOC(=O)CCCNC1N=C(c2ccccc2Cl)c2c(cn(C)c2C)N(C)C1=O (centres undefined)	105 to 107
